Laboratory results: US10240210B2, “Methods of stratifying patients for treatment with retinoic acid receptor-alpha agonists” (Syros Pharmaceuticals, Inc., priority 2016, dated 2019)

Key:
[1] = test system: HEL; test: AML cell line anti-proliferation (cell viability, ATPlite or CyQuant); type: cell-based; conditions: Homo sapiens, 240 h, five or ten days incubation, read-out: Tamibarotene anti-proliferative potency (EC50)
[2] = test system: OCI-AML2; test: as above; type: cell-based; conditions: Homo sapiens, 240 h, five or ten days incubation, read-out: Tamibarotene anti-proliferative potency (EC50)
[3] = test system: OCI-M1; test: as above; type: cell-based, human
[4] = test system: MV4-11; test: as above; type: cell-based, human
[5] = test system: PL21; test: as above; type: cell-based; conditions: Homo sapiens, PL-21, 240 h, five or ten days incubation, read-out: Tamibarotene anti-proliferative potency (EC50)
[6] = test system: Kasumi-1; test: as above; type: cell-based, human
[7] = test system: KG-1a; test: as above; type: cell-based, human
[8] = test system: HL60; test: as above; type: cell-based; conditions: Homo sapiens, HL-60, 240 h; HL60 (APL cell line); five or ten days incubation; read-out: Tamibarotene anti-proliferative potency (EC50)
[9] = test system: OCI-AML3; test: as above; type: cell-based, human
[10] = test system: Sig-M5; test: as above; type: cell-based, human
[11] = test system: AM7440 xenografts; test: AML patient sample-derived xenograft model; type: in vivo, BALB/c nude immunocompromised mice; conditions: 6 mg per kg orally daily
Protocol: (§1) Different AML patient sample (AM8096, AM5512, AM7577 and AM7440)-derived xenograft models in BALB/c nude immunocompromised mice are prepared by Crown Biosciences (Beijing, China) essentially as follows.
(§2) Approximately 2×10^6 cells from each patient sample are suspended in 100 μL PBS and injected into separate mice (n=3 for each different patient sample and for the control) by IV tail injection. For AM5512, AM7577 and AM7440 xenografts, tumor burden is considered high enough to start treatment when the concentration of human CD45^+ cells reaches ˜1-5% in the animal's peripheral blood. Human CD45^+ cells are detected in mouse blood (obtained via eye bleeds) using a fluorescence activated cell sorter and FITC anti-human CD45 (Biolegend, Cat#304037). For AM8096 xenografts, treatment is begun 40 days after injection of cells.
(§3) Tamibarotene is administered orally in pH 8 adjusted PBS, 1% DMSO on a daily schedule at a final dose of 6 mg per kg body weight in a 10 ml/kg volume. Mice in the vehicle arm are given the same schedule, volume, and formulation, but lacking tamibarotene. Human CD45^+ cell levels in peripheral blood from the treated animals and control animals are measured once a week.

[12] = test system: AM7577 xenografts; test: AML patient sample-derived xenograft model; type: in vivo, BALB/c nude immunocompromised mice; conditions: 6 mg per kg orally daily
Protocol: as §1, §2, §3

[13] = test system: AM8096 xenografts; test: AML patient sample-derived xenograft model; type: in vivo, BALB/c nude immunocompromised mice; conditions: 6 mg per kg orally daily, after 35 days of treatment
Protocol: as §1, §2, §3

[14] = test system: AM5512 xenografts; test: AML patient sample-derived xenograft model; type: in vivo, BALB/c nude immunocompromised mice; conditions: 6 mg per kg orally daily, after 35 days of treatment
Protocol: as §1, §2, §3

[15] = test system: THP-1; test: AML cell line anti-proliferation (cell viability, ATPlite or CyQuant); type: cell-based; conditions: Homo sapiens, 240 h; THP-1 AML cell line; five or ten days incubation; read-out: Tamibarotene anti-proliferative potency (EC50)
[16] = test system: Nomo-1; test: as above; type: cell-based, human
[17] = test system: EOL-1; test: as above; type: cell-based; conditions: Homo sapiens, EOL1, 240 h; EOL-1 AML cell line; five or ten days incubation; read-out: Tamibarotene anti-proliferative potency (EC50)

CC1(C)CCC(C)(C)c2cc(NC(=O)c3ccc(C(=O)O)cc3)ccc21 [tamibarotene]
EC50 [1]: > 50000 nM | EC50 [2]: 0.34 nM | EC50 ([3]; Homo sapiens, 240 h, OCI-M1 AML cell line, five or ten days incubation, read-out: Tamibarotene anti-proliferative potency (EC50)): > 50000 nM | sensitivity of cell line to tamibarotene ([3]; OCI-M1): insensitive | EC50 ([4]; Homo sapiens, 240 h, MV4-11 AML cell line, five or ten days incubation, read-out: Tamibarotene anti-proliferative potency (EC50)): 0.17 nM | sensitivity of cell line to tamibarotene ([4]; MV-4-11): sensitive | EC50 [5]: 1.41 nM | EC50 ([6]; Homo sapiens, 240 h, Kasumi-1 AML cell line, five or ten days incubation, read-out: Tamibarotene anti-proliferative potency (EC50)): > 50000 nM | sensitivity of cell line to tamibarotene ([6]; Kasumi-1): insensitive | EC50 ([7]; Homo sapiens, 240 h, KG-1a AML cell line, five or ten days incubation, read-out: Tamibarotene anti-proliferative potency (EC50)): > 50000 nM | sensitivity of cell line to tamibarotene ([7]; KG1a): insensitive | EC50 [8]: 1.64 nM | EC50 ([9]; Homo sapiens, OCI-AML-3, 240 h, OCI-AML3 AML cell line, five or ten days incubation, read-out: Tamibarotene anti-proliferative potency (EC50)): 0.34 nM | sensitivity of cell line to tamibarotene ([9]; OCI-AML3): sensitive | EC50 ([10]; Homo sapiens, 240 h, Sig-M5 AML cell line, five or ten days incubation, read-out: Tamibarotene anti-proliferative potency (EC50)): 0.46 nM | sensitivity of cell line to tamibarotene ([10]; Sig-M5): sensitive | tumor volume between tamibarotene treated and vehicle treated animals, overall or in blood, bone marrow or spleen [11]: no significant reduction | tumor volume between tamibarotene treated and vehicle treated animals, overall or in blood, bone marrow or spleen [12]: no significant reduction | total % of CD45+ cells and % of CD45+ cells in blood, bone marrow and spleen, compared to the vehicle control [13]: significant reduction | total % of CD45+ cells and % of CD45+ cells in blood, bone marrow and spleen, compared to the vehicle control [14]: significant reduction | EC50 [15]: 0.95 nM | EC50 ([16]; Homo sapiens, 240 h, Nomo-1 AML cell line, five or ten days incubation, read-out: Tamibarotene anti-proliferative potency (EC50)): 0.48 nM | sensitivity of cell line to tamibarotene ([16]; NOMO-1): sensitive | EC50 [17]: 0.89 nM
